{"source": "paper PMC5315611", "about": "(Clinical cancer research : an official journal of the …, 2016)", "key": {"[1]": {"test_system": "relapsed or refractory acute leukemia", "conditions": "cited from earlier work"}, "[2]": {"assay": "Veliparib plasma pharmacokinetics", "conditions": "after multiple doses, MTD (80 mg) vs highest administered dose (100 mg)"}, "[3]": {"test_system": "AML cell lines and clinical samples", "conditions": "in vitro; cited from earlier work"}, "[4]": {"conditions": "human, in vivo, po"}, "clinical": {"assay": "clinical", "conditions": "human, in vivo, po; for half-life: t1/2"}}, "note": "Read-outs that look alike come from different tables or passages of the source."}
{"smiles": "N.N.O=C([O-])C1(C(=O)[O-])CCC1.[Pt+2]", "note": "[carboplatin]", "values": [{"measurement": "carboplatin dose at the MTD of the combination", "setting": "CI IV days 3-7, with veliparib 80 mg twice daily + topotecan 1.2 mg/m^2/d", "result": 150, "unit": "mg/m^2/d"}, {"measurement": "maximum tolerated dose (MTD) of carboplatin", "setting": "[1]; with topotecan simultaneously for 5 days", "result": 150, "unit": "mg/m^2/day"}]}
{"smiles": "CC[C@@]1(O)C(=O)OCc2c1cc1n(c2=O)Cc2cc3c(CN(C)C)c(O)ccc3nc2-1", "note": "[topotecan]", "values": [{"measurement": "topotecan dose at the MTD of the combination", "setting": "CI IV days 3-7, with veliparib 80 mg twice daily + carboplatin 150 mg/m^2/d", "result": 1.2, "unit": "mg/m^2/d"}, {"measurement": "toxicity associated with topotecan 1.3 mg/m^2", "setting": "in vivo", "result": "dose-limiting GI mucositis"}, {"measurement": "maximum tolerated dose (MTD) of topotecan", "setting": "[1]; with carboplatin simultaneously for 5 days", "result": 1.6, "unit": "mg/m^2/day"}]}
{"smiles": "C[C@]1(c2nc3c(C(N)=O)cccc3[nH]2)CCCN1", "note": "[veliparib]", "values": [{"measurement": "increase in AUC", "setting": "[2]", "result": 2.0, "unit": "fold"}, {"measurement": "maximum tolerated dose (MTD) of veliparib", "setting": "with CI IV topotecan 1.2 mg/m^2/d + carboplatin 150 mg/m^2/day on days 3-7", "result": 80, "unit": "mg twice daily"}, {"measurement": "effect on the antiproliferative and proapoptotic effects of topotecan", "setting": "[3]", "result": "enhances"}, {"measurement": "synergy with cytarabine or etoposide", "setting": "[3]", "result": "no synergy"}, {"measurement": "Cl/F", "setting": "[4]; 10 mg", "result": "27.7 ± 9.3 (23) L/h"}, {"measurement": "Cl/F", "setting": "[4]; 20 mg", "result": "31.7 ± 7.7 (12) L/h"}, {"measurement": "Cl/F", "setting": "[4]; 40 mg", "result": "36.4 ± 15.4 (5) L/h"}, {"measurement": "Cl/F", "setting": "[4]; 80 mg", "result": "26.2 ± 7.1 (30) L/h"}, {"measurement": "Cmax", "setting": "[4]; 80 mg", "result": "608.7 ± 260.3 (35) ng/mL"}, {"measurement": "Tmax", "setting": "[4]; 80 mg", "result": "1.1 (0.3 - 6.0; 35) h"}, {"measurement": "t1/2", "setting": "[4]; 80 mg", "result": "4.7 ± 1.4 (30) h"}, {"measurement": "Cl/F", "setting": "[4]; 90 mg", "result": "35.9 ± 10.2 (3) L/h"}, {"measurement": "Cl/F", "setting": "[4]; 100 mg", "result": "44.9 ± 50.6 (4) L/h"}, {"measurement": "Cmax", "setting": "clinical; 10 mg", "result": "74.6 ± 33", "unit": "ng/mL"}, {"measurement": "half-life", "setting": "clinical; 10 mg", "result": "5.5 ± 3.5", "unit": "h"}, {"measurement": "Tmax", "setting": "clinical; 10 mg", "result": 2, "unit": "h"}, {"measurement": "Cmax", "setting": "clinical; 20 mg", "result": "102 ± 31.6", "unit": "ng/mL"}, {"measurement": "half-life", "setting": "clinical; 20 mg", "result": "4.7 ± 1.1", "unit": "h"}, {"measurement": "Tmax", "setting": "clinical; 20 mg", "result": 2, "unit": "h"}, {"measurement": "Cmax", "setting": "clinical; 40 mg", "result": "231 ± 128", "unit": "ng/mL"}, {"measurement": "half-life", "setting": "clinical; 40 mg", "result": "4.1 ± 0.9", "unit": "h"}, {"measurement": "Tmax", "setting": "clinical; 40 mg", "result": 1, "unit": "h"}, {"measurement": "Cmax", "setting": "clinical; 90 mg", "result": "509 ± 101", "unit": "ng/mL"}, {"measurement": "half-life", "setting": "clinical; 90 mg", "result": "3.2 ± 1.2", "unit": "h"}, {"measurement": "Tmax", "setting": "clinical; 90 mg", "result": 1, "unit": "h"}, {"measurement": "Cmax", "setting": "clinical; 100 mg", "result": "1120 ± 718", "unit": "ng/mL"}, {"measurement": "half-life", "setting": "clinical; 100 mg", "result": "5.9 ± 2.4", "unit": "h"}, {"measurement": "Tmax", "setting": "clinical; 100 mg", "result": 1, "unit": "h"}]}
